The nature of series [1]: Body weight changes of LLC bearing mice. Type of series: in vivo. Particulars: LLC bearing C57BL mice, 27 daily 7.5 mg/kg ip. The text has this:
Besides, it was as cytotoxic as 19 towards cancer cells while showing a more favorable selectivity index. On these basis, compound 27 was chosen for in vivo experiments against a syngeneic murine solid tumor model, the murine Lewis Lung Carcinoma (LLC). The tumor growth inhibition induced by 27 was compared with that promoted by cisplatin (CDDP), the most common chemotherapeutic drug used in the treatment of lung cancers. Nine days after tumor inoculation, tumor-bearing mice were randomized into vehicle control and treatment groups (8 mice per group). […] As an indication of the adverse side effects, changes in the body weights of tumor-bearing mice were monitored at day 1 and daily from day 9.
Figure 7 In vivo testing of compound 27. […] At day 20, animals were sacrificed (i.e., before tumor can cause the animal discomfort), the legs were amputated at the proximal end of the femur, and the inhibition of tumor growth was determined according to the difference in weight of the tumor-bearing leg and the healthy leg of the animals expressed as % referred to the control animals. […] Both 27 and CDDP were administered at the highest not toxic doses (7.5 and 1.5 mg/kg, respectively), as determined by MTD studies. […] Weights were measured at day 1 and daily from day 9. […]

Series [2] concerns Lewis Lung Carcinoma (LLC). The experiment in a line: In vivo anticancer activity toward Lewis Lung Carcinoma (LLC). Particulars: LLC in C57BL mice, 27 at 7.5 mg/kg, CDDP at 1.5 mg/kg. An excerpt: Besides, it was as cytotoxic as 19 towards cancer cells while showing a more favorable selectivity index. On these basis, compound 27 was chosen for in vivo experiments against a syngeneic murine solid tumor model, the murine Lewis Lung Carcinoma (LLC). The tumor growth inhibition induced by 27 was compared with that promoted by cisplatin (CDDP), the most common chemotherapeutic drug used in the treatment of lung cancers. Nine days after tumor inoculation, tumor-bearing mice were randomized into vehicle control and treatment groups (8 mice per group). Control mice received the vehicle (0.2%v/v EtOH and 99.8%v/v of a saline solution), whereas treated groups received daily doses of 27 (7.5 mg · kg^−1 in the vehicle solution composed of 0.2%v/v EtOH and 99.8%v/v of saline solution) or CDDP (1.5 mg · kg^−1 in saline solution). Tumor growth was estimated at day 20 (Fig. 7a). As an indication of the adverse side effects, changes in the body weights of tumor-bearing mice were monitored at day 1 and daily from day 9.
Figure 7 In vivo testing of compound 27. Lewis lung carcinoma (LLC) was implanted i.m. (2 · 10^6 cells inoculum) into the right hind leg of 8-week old imbred C57BL mice. Nine days after tumor inoculation (palpable tumor), tumor-bearing mice were randomized into vehicle control and treatment groups (8 mice per group). Compound 27 was dosed daily at 7.5 mg/kg ip and CDDP was dosed daily at 1.5 mg/kg ip. At day 20, animals were sacrificed (i.e., before tumor can cause the animal discomfort), the legs were amputated at the proximal end of the femur, and the inhibition of tumor growth was determined according to the difference in weight of the tumor-bearing leg and the healthy leg of the animals expressed as % referred to the control animals. Control was constituted by vehicle (0.2%v/v EtOH and 99.8%v/v of saline solution). CDDP was used as positive reference. Both 27 and CDDP were administered at the highest not toxic doses (7.5 and 1.5 mg/kg, respectively), as determined by MTD studies. (a) Average tumor weight (g) after 20 days of treatment with control or compounds. (b) Percentage of reduction in tumor growth after 20 days of treatment with respect to control mice. (c) Body weight changes. The body weight changes of LLC bearing C57BL mice treated with vehicle or tested compounds. Each drug was administered daily after 9 days from the tumor cell inoculum. Weights were measured at day 1 and daily from day 9. Error bars indicate the standard deviation.
All studies involving animal testing were carried out in accordance with the ethical guidelines for animal research adopted by the University of Padua, acknowledging the Italian regulation (D.L.G.S. 116/92) and European Directive 86/609/EEC as to the animal welfare and protection and the related codes of practice. […]

Series [3] is described as follows: MTD studies (highest not toxic dose). Type of series: in vivo. Particulars: C57BL, mouse, in vivo; daily ip; read-out: Highest not toxic dose as determined by MTD studies.

Consider one compound from publication PMC4645160, “Targeting kinases with anilinopyrimidines: discovery of N-phenyl-N’-[4-(pyrimidin-4-ylamino)phenyl]urea derivatives as selective inhibitors of class III receptor tyrosine kinase subfamily” (Scientific Reports, 2015).

Each structure is given as a SMILES string.

Take `O=C(CN1CCOCC1)Nc1cccc(-c2cc(Nc3ccc(NC(=O)Nc4ccccc4)cc3)ncn2)c1` [Compound 27]: the Body weight loss in series [1] is given as less than 10%. For the same compound, the “Inhibition of tumor growth (%)” value in series [2] (daily ip from day 9, day 20, versus vehicle control) is listed as 84.7%. Moreover, the “Average tumor weight (mean±S.D., g)” value in series [2] (daily ip from day 9, day 20) was determined as 0.075 ± 0.03 g. The MTD in series [3] amounted to 7.5 mg/kg.
